Results from patent US20240109873A1, “ANTAGONISTS OF THE MUSCARINIC ACETYLCHOLINE RECEPTOR M4” (Vanderbilt University, priority 2020, published 2024).

What was measured:
human mAChR M4 = target: T1, human mAChR M4 (Homo sapiens, UniProt P08173); experiment: mAChR M4 cell-based functional assay (calcium flux, antagonism of EC80 acetylcholine response, M4/Gqi5/CHO-K1 cells); conditions: for remaining activity at 30 µM: CHO-K1, % ACh maximum at 30 μM, read-out: Human M4 Emin; for IC50: decrease of the response elicited by an EC80 concentration of acetylcholine, CHO-K1 cells, Gqi5
T1 construct: expressed in transfected cells; host or cells: CHO-K1 (ATCC), co-transfected with chimeric G protein Gqi5
T1 sequence (P08173 1-479): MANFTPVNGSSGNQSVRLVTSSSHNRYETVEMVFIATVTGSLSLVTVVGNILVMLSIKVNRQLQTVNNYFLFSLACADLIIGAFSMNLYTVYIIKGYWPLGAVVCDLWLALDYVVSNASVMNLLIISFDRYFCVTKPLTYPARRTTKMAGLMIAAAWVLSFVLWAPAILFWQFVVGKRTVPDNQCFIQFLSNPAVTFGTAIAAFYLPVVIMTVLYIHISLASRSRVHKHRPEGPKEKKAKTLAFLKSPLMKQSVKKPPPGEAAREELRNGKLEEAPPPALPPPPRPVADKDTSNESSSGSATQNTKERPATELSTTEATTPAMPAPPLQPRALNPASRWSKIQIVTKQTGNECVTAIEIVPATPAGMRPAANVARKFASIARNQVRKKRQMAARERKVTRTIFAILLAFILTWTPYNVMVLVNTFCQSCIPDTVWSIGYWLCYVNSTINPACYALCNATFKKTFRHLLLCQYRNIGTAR
Summary of the method: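 CHO-K1 cells stably expressing human M4 with chimeric Gqi5, loaded with Fluo-4 AM; calcium flux read on FDSS. Compounds (10-point, 1:3 curves) added first, then EC20 acetylcholine at 143 s and EC80 at 268 s. IC50 from decrease of EC80 acetylcholine response, four-parameter logistic fit.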

mice = experiment: haloperidol-induced catalepsy, a model of parkinsonian motor disability; type: in vivo
Excerpt: Furthermore, haloperidol-induced catalepsy, a model of parkinsonian motor disability, is reduced in M4 knockout mice as compared to wild-type controls. […] The reversal by scopolamine was uncommonly robust and more pronounced than we observe with agents targeting a number of other targets being evaluated for potential antiparkinsonian effects, including metabotropic glutamate (mGlu) receptors mGlu4 or mGlu5, A2A adenosine receptors, and NMDA receptors. […] Taken together with the extensive studies of M4 modulation of basal ganglia and motor function, these studies provide compelling evidence that M4 is the dominant mAChR subtype involved in the antiparkinsonian effects of non-selective mAChR antagonists and provide support for discovery and development of selective M4 antagonists for treatment of neurodegenerative disease such as PD, dystonia, tardive dyskinesia and other movement disorders.

`[2H]C([2H])(C1CCOCC1)N1C[C@H]2C[C@H](Nc3ccc(-c4cccnc4C(F)(F)F)nc3)C[C@H]2C1` [Compound 41, (3aR,5s,6aS)-2-((tetrahydro-2H-pyran-4-yl)methyl-d2)-N-(2′-(trifluoromethyl)-[2,3′-bipyridin]-5-yl)octahydrocyclopenta[c]pyrrol-5-amine] showed a remaining activity at 30 µM (human mAChR M4) of 2% and an IC50 (human mAChR M4) of 8.7 nM.
In the case of `[2H]C([2H])(CC1CCOCC1)N1C[C@H]2C[C@H](Nc3ccc(-c4cccnc4C(F)(F)F)nn3)C[C@H]2C1` [Compound 42, (3aR,5s,6aS)-2-(2-(tetrahydro-2H-pyran-4-yl)ethyl-1,1-d2)-N-(6-(2-(trifluoromethyl)pyridin-3-yl)pyridazin-3-yl)octahydrocyclopenta[c]pyrrol-5-amine], the remaining activity at 30 µM (human mAChR M4) is reported as 2% and the IC50 (human mAChR M4) is reported as 1.3 nM.
Compound `[2H]C([2H])(C1CCOC(C)(C)C1)N1C[C@H]2C[C@H](Nc3ccc(-c4cccnc4C(F)(F)F)nn3)C[C@H]2C1` (stereo partly drawn) [Compound 43, (3aR,5s,6aS)-2-((2,2-dimethyltetrahydro-2H-pyran-4-yl)methyl-d2)-N-(6-(2-(trifluoromethyl)pyridin-3-yl)pyridazin-3-yl)octahydrocyclopenta[c]pyrrol-5-amine] has a remaining activity at 30 µM (human mAChR M4) of 2% and an IC50 (human mAChR M4) of 2.6 nM.
`[2H]C1([2H])CC(C([2H])([2H])N2C[C@H]3C[C@H](Nc4ccc(-c5cccnc5C(F)(F)F)nn4)C[C@H]3C2)CC([2H])([2H])O1` [Compound 44, (3aR,5s,6aS)-2-((tetrahydro-2H-pyran-4-yl-2,2,6,6-d4)methyl-d2)-N-(6-(2-(trifluoromethyl)pyridin-3-yl)pyridazin-3-yl)octahydrocyclopenta[c]pyrrol-5-amine] gave a remaining activity at 30 µM (human mAChR M4) of 2% and an IC50 (human mAChR M4) of 1.4 nM.
Work on `[2H]C([2H])(C1CC(C)(C)OC(C)(C)C1)N1C[C@H]2C[C@H](Nc3ccc(-c4cccnc4C(F)(F)F)nn3)C[C@H]2C1` [Compound 45, (3aR,5s,6aS)-2-((2,2,6,6-tetramethyltetrahydro-2H-pyran-4-yl)methyl-d2)-N-(6-(2-(trifluoromethyl)pyridin-3-yl)pyridazin-3-yl)octahydrocyclopenta[c]pyrrol-5-amine] yielded a remaining activity at 30 µM (human mAChR M4) of 2% and an IC50 (human mAChR M4) of 14.7 nM.
With `[2H]C([2H])([C@H]1CCCOC1)N1C[C@H]2C[C@H](Nc3ccc(-c4cccnc4C(F)(F)F)nn3)C[C@H]2C1` [Compound 46, (3aR,5s,6aS)-2-(((R)-tetrahydro-2H-pyran-3-yl)methyl-d2)-N-(6-(2-(trifluoromethyl)pyridin-3-yl)pyridazin-3-yl)octahydrocyclopenta[c]pyrrol-5-amine] the remaining activity at 30 µM (human mAChR M4) was 2% and the IC50 (human mAChR M4) was 21.7 nM.
With `[2H]C([2H])([C@@H]1CCCOC1)N1C[C@H]2C[C@H](Nc3ccc(-c4cccnc4C(F)(F)F)nn3)C[C@H]2C1` [Compound 47, (3aR,5s,6aS)-2-(((S)-tetrahydro-2H-pyran-3-yl)methyl-d2)-N-(6-(2-(trifluoromethyl)pyridin-3-yl)pyridazin-3-yl)octahydrocyclopenta[c]pyrrol-5-amine] the remaining activity at 30 µM (human mAChR M4) was 2% and the IC50 (human mAChR M4) was 4 nM.
In the case of `[2H]C([2H])([C@@H]1CCCCO1)N1C[C@H]2C[C@H](Nc3ccc(-c4cccnc4C(F)(F)F)nn3)C[C@H]2C1` [Compound 48, (3aR,5s,6aS)-2-(((S)-tetrahydro-2H-pyran-2-yl)methyl-d2)-N-(6-(2-(trifluoromethyl)pyridin-3-yl)pyridazin-3-yl)octahydrocyclopenta[c]pyrrol-5-amine], the remaining activity at 30 µM (human mAChR M4) is reported as 2% and the IC50 (human mAChR M4) is reported as 0.87 nM.
Work on `[2H]C([2H])([C@H]1CCCCO1)N1C[C@H]2C[C@H](Nc3ccc(-c4cccnc4C(F)(F)F)nn3)C[C@H]2C1` [Compound 49, (3aR,5s,6aS)-2-(((R)-tetrahydro-2H-pyran-2-yl)methyl-d2)-N-(6-(2-(trifluoromethyl)pyridin-3-yl)pyridazin-3-yl)octahydrocyclopenta[c]pyrrol-5-amine] yielded a remaining activity at 30 µM (human mAChR M4) of 2% and an IC50 (human mAChR M4) of 0.55 nM.
Compound `[2H]C([2H])(C1CCOCC1)N1C[C@H]2C[C@H](Nc3nnc(-c4cccnc4C(F)(F)F)cc3C)C[C@H]2C1` [Compound 50, (3aR,5s,6aS)-N-(4-methyl-6-(2-(trifluoromethyl)pyridin-3-yl)pyridazin-3-yl)-2-((tetrahydro-2H-pyran-4-yl)methyl-d2)octahydrocyclopenta[c]pyrrol-5-amine] has a remaining activity at 30 µM (human mAChR M4) of 1% and an IC50 (human mAChR M4) of 0.88 nM.
Work on `[2H]C([2H])([C@H]1COCCO1)N1C[C@H]2C[C@H](Nc3ccc(-c4cccnc4C(F)(F)F)nn3)C[C@H]2C1` [Compound 51, (3aR,5s,6aS)-2-(((S)-1,4-dioxan-2-yl)methyl-d2)-N-(6-(2-(trifluoromethyl)pyridin-3-yl)pyridazin-3-yl)octahydrocyclopenta[c]pyrrol-5-amine] yielded a remaining activity at 30 µM (human mAChR M4) of 2% and an IC50 (human mAChR M4) of 1.4 nM.
`[2H]C([2H])(C1CCCOCC1)N1C[C@H]2C[C@H](Nc3ccc(-c4cccnc4C(F)(F)F)nn3)C[C@H]2C1` (stereo partly drawn) [Compound 52, (3aR,5s,6aS)-2-(oxepan-4-ylmethyl-d2)-N-(6-(2-(trifluoromethyl)pyridin-3-yl)pyridazin-3-yl)octahydrocyclopenta[c]pyrrol-5-amine] gave a remaining activity at 30 µM (human mAChR M4) of 2% and an IC50 (human mAChR M4) of 0.58 nM.
Compound `[2H]C([2H])(C1CCOCC1(C)C)N1C[C@H]2C[C@H](Nc3ccc(-c4cccnc4C(F)(F)F)nn3)C[C@H]2C1` (stereo partly drawn) [Compound 53, (3aR,5s,6aS)-2-((3,3-dimethyltetrahydro-2H-pyran-4-yl)methyl-d2)-N-(6-(2-(trifluoromethyl)pyridin-3-yl)pyridazin-3-yl)octahydrocyclopenta[c]pyrrol-5-amine] has a remaining activity at 30 µM (human mAChR M4) of 3% and an IC50 (human mAChR M4) of 2.9 nM.
Work on `[2H]C([2H])(C1CC2(CC2)CO1)N1C[C@H]2C[C@H](Nc3ccc(-c4cccnc4C(F)(F)F)nn3)C[C@H]2C1` (stereo partly drawn) [Compound 54, (3aR,Ss,6aS)-2-((5-oxaspiro[2.4]heptan-6-yl)methyl-d2)-N-(6-(2-(trifluoromethyl)pyridin-3-yl)pyridazin-3-yl)octahydrocyclopenta[c]pyrrol-5-amine] yielded a remaining activity at 30 µM (human mAChR M4) of 2% and an IC50 (human mAChR M4) of 0.69 nM.
For `[2H]C([2H])(N1C[C@H]2C[C@H](Nc3ccc(-c4cccnc4C(F)(F)F)nn3)C[C@H]2C1)C12COC(C)(C1)C2` [Compound 55, (3aR,5s,6aS)-2-((1-methyl-2-oxabicyclo[2.1.1]hexan-4-yl)methyl-d2)-N-(6-(2-(trifluoromethyl)pyridin-3-yl)pyridazin-3-yl)octahydrocyclopenta[c]pyrrol-5-amine], the remaining activity at 30 µM (human mAChR M4) was 3% and the IC50 (human mAChR M4) was 5.5 nM.
Work on `[2H]C([2H])(C1CCOC2(CCC2)C1)N1C[C@H]2C[C@H](Nc3ccc(-c4cccnc4C(F)(F)F)nn3)C[C@H]2C1` (stereo partly drawn) [Compound 60, (3aR,5s,6aS)-2-((5-oxaspiro[3.5]nonan-8-yl)methyl-d2)-N-(6-(2-(trifluoromethyl)pyridin-3-yl)pyridazin-3-yl)octahydrocyclopenta[c]pyrrol-5-amine] yielded a remaining activity at 30 µM (human mAChR M4) of 4% and an IC50 (human mAChR M4) of 1.4 nM.
For `CN1[C@@H]2C[C@@H](OC(=O)[C@H](CO)c3ccccc3)C[C@H]1[C@@H]1O[C@@H]12` [scopolamine], the “reduction of catalepsy induced by haloperidol” value (mice; M4 KO mice) was “ineffective in reducing catalepsy” and the “reversal of catalepsy induced by haloperidol” value (mice; WT mice) was “completely reversed”.
